“Also recorded” adds a separate entry of the source. Counter-ions that a name gives are not always drawn.
Key:
[1] = tested on: isolated auricle of a rabbit; assay: Peripheral vasomotoricity, isolated and perfused auricle of a rabbit; settings: for activation at 0.0001 mg / activation at 0.001 mg / activation at 0.01 mg / activation at 0.1 mg: Oryctolagus cuniculus, read-out: Maximum variations in the flow rate; for activation at 0.0001 mg: dose 0.1 μg.; for activation at 0.001 mg: dose 1 μg.; for activation at 0.01 mg: dose 10 μg.; for activation at 0.1 mg: dose 100 μg.; for peripheral vasodilatory action: in words; for duration of the effects / of the action: at the highest doses
Procedure: The flow rate of the liquid issuing from the veins is recorded by electronic contact on a polygraph. The products to be studied are injected at increasing doses into the perfusion tube and their actions are compared to that of isoxsuprine used as the reference substance.
The results, collected in Table No. III, are expressed in the maximum percentage increase of the flow rate at the various doses used.

[2] = Acute toxicity in mice (LD 50); assay type: in vivo; settings: mouse, in vivo, mice, 15 days observation
Procedure: (§1) The study is carried out on batches of 5 Swiss female mice of the NMRI Han. strain. The products are administered either intravenously (into the caudal vein) in solution in a 9 g..permill. sodium chloride solution, or orally (probang) in suspension in a 10% solution of gum arabic.
(§2) The animals are observed for the 15 days following the administration of the products.
(§3) The LD 50 values are calculated by the method of Karber and Behrens (Arch. Exp. Pathol. Pharm. 177, 1935, page 379).

[3] = Cardiovascular action in dogs; assay type: in vivo, male Beagle dogs
Procedure: Male Beagle dogs weighing 9 to 12 kg. were anaesthetised by intrasaphenous injection of a 2% solution of chloralose in physiological solution, at a dose of 100 mg./kg.
The anaesthesia is maintained by slow perfusion of 5% pentobarbital (1.2 ml./hour).
The animals are tracheotomised and placed under assisted respiration by means of a Bird respirator. Their oxygenation and their acid-base equilibrium are controlled by determination of the pH, the pCO2 and the pO2 on blood samples taken from a collateral of the brachial artery (pH/gas analyser for blood, IL model 213/227).
The different parameters are recorded on a polygraph.

mice = assay: Acute toxicity in mice (LD 50); assay type: in vivo; settings: intravenous; in words
Procedure: as §1, §2, §3

[4] = tested on: hypertensive effects of electrical stimulation, adrenaline and noradrenaline; assay: α-Sympatholytic effects in amyeliated rats; assay type: in vivo; settings: for % variation of the hypertensive effects obtained with adrenaline: adrenaline 1.25 to 2.5 μg./kg.; for % variation of the hypertensive effects obtained with noradrenaline: noradrenaline 1.25 to 2.5 μg./kg.
Excerpt: The α-sympatholytic effects of LJ 1052 and LJ 1053 are compared with those of isoxsuprine in amyeliated rats which have been prepared by a method derived from those of Shipley and Tilden (Proc. soc. Exp. Biol. Med. 1947, 64, 453-455) and of Gillespie and Muir (Br. J. Pharmac. Chemother. 1967, 30, 78-87).
The effects on the blood pressure of electrical stimulation of the thoracolumbar sympathic nerve (rectangular signals = voltage 20 to 40 volts; width 2 m. sec; frequency 10 secs.; duration 5 to 10 secs.) and of injections of adrenaline (1.25 to 2.5 μg./kg.) and of noradrenaline (1.25 to 2.5 μg./kg.) are determined before and after injection of the products tested.

[5] = 0.6 mg./kg. i.v. (1/50 LD 50), first phase
[6] = 0.6 mg./kg. i.v. (1/50 LD 50), then
[7] = dose 50 g./kg. (so in the source)
[8] = dose 100 g./kg. (so in the source)
[9] = 0.04 mg./kg. i.v. (1/1,000 LD 50)
[10] = 0.04 mg./kg. i.v. (1/1,000 LD 50), first or only phase
[11] = 0.04 mg./kg. i.v. (1/1,000 LD 50), then

## CCCNCC1COc2ccccc2C1=O (centres unmarked) [LJ 1048, 3-(n-Propylaminomethyl)-4-chromanone hydrochloride]
[1]
  activation at 0.0001 mg: 22%
  activation at 0.001 mg: 33%
  activation at 0.01 mg: 33%
  activation at 0.1 mg: 29%
  peripheral vasodilatory action: low activity
[2]; intravenous administration
  LD50 at 360 h: 36 mg/kg
[2]; oral administration
  LD50 at 360 h: 362 mg/kg
[3]; 0.7 mg./kg. i.v. (1/50 LD 50)
  Hb (heart beat), maximum per cent variation: +33%
  Hb, duration of action: > 60 min
  LVP (left ventricular pressure), maximum per cent variation: -21%
  LVP, duration of action: 30 min
  Mean AP, duration of action: > 60 min
  Mean AP, maximum per cent variation: -38%
  dLVP/dt, duration of action: 60 min
  dLVP/dt, maximum per cent variation: +28%

## COCCCNCC1COc2ccccc2C1=O (centres unmarked) [LJ 1051, 3-(3-Methoxy-n-propylaminomethyl)-4-chromanone hydrochloride]
[1]
  activation at 0.0001 mg: 0%
  activation at 0.001 mg: 36%
  activation at 0.01 mg: 100%
  duration of the effects / of the action: ≥ 30 min
  peripheral vasodilatory action: great
[2]; intravenous administration
  LD50 at 360 h: 33 mg/kg
[2]; oral administration
  LD50 at 360 h: 475 mg/kg
[3]; 0.6 mg./kg. i.v. (1/50 LD 50)
  LVP (left ventricular pressure), maximum per cent variation: -30%
  LVP, duration of action: > 50 min
  Mean AP, duration of action: > 50 min
  Mean AP, maximum per cent variation: -21%
  dLVP/dt, duration of action: > 50 min
  dLVP/dt, maximum per cent variation: -60%
[3]; [5]
  Hb (heart beat), maximum per cent variation: +20%
  Hb, duration of action: 3 min
[3]; [6]
  Hb, duration of action, second phase ("then"): 40 min
  Hb, maximum per cent variation, second phase ("then"): -16%

## COCCCCNCC1COc2ccccc2C1=O (centres unmarked) [LJ 1053, 3-(4-Methoxy-n-butylaminomethyl)-4-chromanone hydrochloride]
[1]
  activation at 0.0001 mg: 23%
  activation at 0.001 mg: 92%
  activation at 0.01 mg: 133%
  activation at 0.1 mg: 183%
  duration of the effects / of the action: ≥ 30 min
[1]; hydrochloride
  peripheral vasodilatory action: great; also recorded: as active as isoxsuprine
[2]; intravenous administration
  LD50 at 360 h: 38 mg/kg
[2]; oral administration
  LD50 at 360 h: 285 mg/kg
mice
  intravenous LD 50 in mice (comparison of three products): practically identical
[4]; [7]
  % variation of the hypertensive effects obtained with electrical stimulation: -11%
  % variation of the hypertensive effects obtained with adrenaline: -18%
  % variation of the hypertensive effects obtained with noradrenaline: -12%
[4]; [8]
  % variation of the hypertensive effects obtained with electrical stimulation: -55%
  % variation of the hypertensive effects obtained with adrenaline: -47%
  % variation of the hypertensive effects obtained with noradrenaline: -41%
[3]; [9]
  Diastolic AP, duration of action: 5 min
  Diastolic AP, maximum per cent variation: -60%
  FF (mean flow rate of the femoral artery), maximum per cent variation: +104%
  FF, duration of action: 3 min
  Hb (heart beat), maximum per cent variation: +23%
  Hb, duration of action: > 30 min
  LVP, duration of action: > 10 min
  Mean AP, duration of action: 5 min
  Mean AP, maximum per cent variation: -45%
  Systolic AP, duration of action: 15 min
  Systolic AP, maximum per cent variation: +23%
[3]; [10]
  LVP (left ventricular pressure), maximum per cent variation: -17%
  dLVP/dt, maximum per cent variation: -12%
[3]; [11]
  dLVP/dt, duration of action, second phase ("then"): > 10 min
  dLVP/dt, maximum per cent variation, second phase ("then"): +25%

From patent publication US4065575A, “3-Aminomethyl derivatives of 4-chromanone” (Joullie International, priority 1975, dated 1977)
